Data as given in patent US9986740B2, “Methods of identifying insect-TRPA1 modulators” (BRANDEIS UNIVERSITY, priority 2010, dated 2018).
Residue numbers refer to the chain shown, from its start. Entries after “also recorded” stand apart in the source; their conditions may differ. Like-named read-outs stand apart in the source and are kept apart here.

How the values were obtained:
dTRPA1 [1] = biological target: T1, dTRPA1 (Drosophila melanogaster, UniProt Q7Z020); test: Two-electrode voltage clamping on Xenopus laevis oocytes expressing dTRPA1; type: cell-based
T1 sequence (Q7Z020 1-1197): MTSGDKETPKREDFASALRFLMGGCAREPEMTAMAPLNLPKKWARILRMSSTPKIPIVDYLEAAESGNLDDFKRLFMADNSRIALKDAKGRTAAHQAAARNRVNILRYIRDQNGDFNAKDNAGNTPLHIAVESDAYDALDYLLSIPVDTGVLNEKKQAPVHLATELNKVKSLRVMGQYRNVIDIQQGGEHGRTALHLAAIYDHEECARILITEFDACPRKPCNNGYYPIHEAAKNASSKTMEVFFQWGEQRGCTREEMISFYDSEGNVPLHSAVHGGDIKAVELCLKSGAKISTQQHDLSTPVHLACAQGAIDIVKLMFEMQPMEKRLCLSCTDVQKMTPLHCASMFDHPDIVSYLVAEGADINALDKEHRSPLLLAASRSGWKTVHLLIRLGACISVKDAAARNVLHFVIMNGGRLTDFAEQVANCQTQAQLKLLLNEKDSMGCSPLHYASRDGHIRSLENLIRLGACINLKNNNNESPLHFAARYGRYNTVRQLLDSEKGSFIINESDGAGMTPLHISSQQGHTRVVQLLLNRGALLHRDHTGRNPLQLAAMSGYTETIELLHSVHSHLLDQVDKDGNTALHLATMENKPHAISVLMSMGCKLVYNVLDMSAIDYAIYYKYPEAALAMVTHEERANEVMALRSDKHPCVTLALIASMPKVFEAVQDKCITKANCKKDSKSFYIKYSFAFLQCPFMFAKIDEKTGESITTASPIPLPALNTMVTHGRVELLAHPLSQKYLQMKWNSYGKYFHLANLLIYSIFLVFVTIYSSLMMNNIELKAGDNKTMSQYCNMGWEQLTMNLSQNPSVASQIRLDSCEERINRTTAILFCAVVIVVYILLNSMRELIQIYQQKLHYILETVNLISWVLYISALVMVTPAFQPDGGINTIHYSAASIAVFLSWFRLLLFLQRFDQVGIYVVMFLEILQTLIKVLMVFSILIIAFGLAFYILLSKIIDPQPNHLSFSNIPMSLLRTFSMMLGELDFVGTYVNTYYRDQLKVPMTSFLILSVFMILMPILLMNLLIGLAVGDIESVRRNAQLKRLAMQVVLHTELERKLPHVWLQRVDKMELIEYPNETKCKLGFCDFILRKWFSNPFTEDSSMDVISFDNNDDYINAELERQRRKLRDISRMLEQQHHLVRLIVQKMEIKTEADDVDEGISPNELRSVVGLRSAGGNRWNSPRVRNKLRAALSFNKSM

dTRPA1-2C = biological target: T2, dTRPA1-2C (Drosophila melanogaster, UniProt Q7Z020, C650S/C670S); test: Two-electrode voltage clamping on oocytes expressing mutant dTRPA1-2C; type: cell-based; conditions: cysteines 650 and 670 mutated to serines; 0.1, 0.5, 1.0 mM AITC
T2 construct: expressed in transfected cells; host or cells: Xenopus laevis oocytes
T2 sequence (Q7Z020 1-1197 C650S/C670S): T1 sequence (Q7Z020 1-1197) with C650S, C670S
Protocol: Oocyte and larval physiology were performed largely as described in Hamada, et al., Nature 454, 217-220 (2008) and Pulver, et al., J Neurophysiol 101, 3075-3088 (2009), with additional details provided in below. Chemical sensitivities of wild type and mutant (dTRPA1-2C) channels were assessed by normalizing all currents to currents observed at 1 mM AITC.
Agonist-evoked dTRPA1 currents were recorded as previously described in (Hamada, et al., Nature 454, 217-220 (2008)), with the following modifications. Agonists of interest were added to the oocyte perfusion buffer (96 mM NaCl, 1 mM MgCl2, 4 mM KCl, and 5 mM HEPES, pH 7.6). Voltage was initially held at −60 mV, and a 300-ms voltage ramp (−60 mV to 60 mV) per sec was applied to dTRPA1- or AgTRPA1-expressing oocytes during perfusion of agonist-containing buffer. Typical oocyte resting membrane potentials were between −25 and −60 mV. […] EC50s for wild type dTRPA1 channels were obtained at −60 mV, with AITC provided for 60 sec with 30 sec intervals between increasing concentrations.
Substitutions of cysteine/lysine residues in dTrpA1 were made by swapping a region of wild type cDNA sequence including codons of cysteine or lysine with mutated cassettes. […]

Drosophila flies = test: Proboscis extension response (PER) behavioral assay; type: in vivo, Drosophila melanogaster; conditions: for Effect on PER in dTrpA1 loss-of-function mutants / Effect on PER in painless mutants / Effect on proboscis extension response (PER) / feeding: ingestion permitted; for Acceptance on first offering: first of five tastant offerings; for Effect on PER in painless mutants: painless mutant flies; for Effect on proboscis extension response (PER) / feeding: 350 mM sucrose with 2 mM AITC
uninjected oocytes = test: Two-electrode voltage clamping on uninjected oocytes; type: cell-based, Xenopus laevis; conditions: 3 mM AITC, 1 mM CA, 0.1 mM NMM
mammalian TRPA1s = conditions: conserved cysteine-independent; cited from earlier work
dTRPA1 [2] = biological target: T1, dTRPA1; conditions: cited from earlier work
agTRPA1 = conditions: cited from earlier work
flies = conditions: in vivo; cited from earlier work
nematodes = conditions: in vivo; cited from earlier work
mammalian nociceptors = conditions: cited from earlier work
[3] = wild-type dTRPA1 in Xenopus oocytes
[4] = wild type flies, 10 mM NMM or 6 mM CA

## CC1(C)[C@H](C(=O)O[C@H](C#N)c2cccc(Oc3ccccc3)c2)[C@@H]1C=C(Br)Br [deltamethrin]
dTRPA1 [1]
  Activation of dTRPA1: failed to activate

## CCCCN(CCC(=O)OCC)C(C)=O [IR-3535]
dTRPA1 [1]; [3]
  Activation of dTRPA1: failed to activate

## C=CCN=C=S [AITC, allyl isothiocyanate]
dTRPA1-2C
  AITC sensitivity of dTRPA1-2C versus wild type: low sensitivity; also recorded: significantly decreased
dTRPA1 [1]
  Activation of dTRPA1: activated
Drosophila flies
  Effect on PER in dTrpA1 loss-of-function mutants: no reduction
  Acceptance on first offering: usually accepted
  Effect on PER in painless mutants: significantly inhibited
Drosophila flies; [4]
  Effect on proboscis extension response (PER) / feeding: dramatically inhibited
Uninjected oocytes
  Response of uninjected oocytes: did not respond

## Cn1c(=O)c2c(ncn2C)n(C)c1=O [caffeine]
Drosophila flies
  Effect on PER in dTrpA1 loss-of-function mutants: inhibited
Drosophila flies; wild type flies, tastant contacts only legs, 350 mM sucrose with 100 mM caffeine, 2 mM AITC, 10 mM NMM or 6 mM CA
  Effect on PER when only leg contact with food permitted: robustly inhibited

## CN1CCCC1c1cccnc1 (centres unmarked) [nicotine]
Mammalian TRPA1s
  Activity on mammalian TRPA1s: agonists
dTRPA1 [1]
  Activation of dTRPA1: did not activate
  Response of dTRPA1 expressing oocytes: did not respond

## 2-aminoethoxydiphenyl borate [2-APB]
Mammalian TRPA1s
  Activity on mammalian TRPA1s: agonists

## N.N.N.N.N.N.N.N.N.N.N.N.N.N.[Cl-].[Cl-].[Cl-].[Cl-].[Cl-].[Cl-].[O-2].[O-2].[Ru+3].[Ru+3].[Ru+4] [ruthenium red]
dTRPA1 [1]; 100 μM ruthenium red applied
  Inhibition of agonist-elicited currents: inhibited
dTRPA1 [2]
  Inhibition of warmth-activated dTRPA1 currents: partially inhibits
agTRPA1
  Inhibition of warmth-activated agTRPA1 currents: partially inhibits

## CN1C(=O)C=CC1=O [NMM, N-methyl-maleimide]
Drosophila flies
  Effect on PER in dTrpA1 loss-of-function mutants: no reduction
  Acceptance on first offering: usually accepted
  Effect on PER in painless mutants: significantly inhibited
Drosophila flies; ingestion-independent PER assay of Al-Anzi et al.
  Effect on ingestion in previously published ingestion-independent PER assay: no effect
Drosophila flies; tissue-specific dTRPA1 RNAi with Dll-Gal4, MJ94-Gal4 or Gr66a-Gal4, 10 mM NMM in 350 mM sucrose
  Change of the compound's effect on PER upon dTRPA1 knockdown: robustly reduced
Drosophila flies; [4]
  Effect on proboscis extension response (PER) / feeding: robustly inhibited
Uninjected oocytes
  Response of uninjected oocytes: did not respond

## COc1cc(CNC(=O)CCCC/C=C/C(C)C)ccc1O [capsaicin]
flies
  Acute response in flies: no acute response
nematodes
  Acute response in nematodes: no acute response
Mammalian nociceptors
  Effect on mammalian nociceptors: activates

## CCN(CC)C(=O)c1cccc(C)c1 [DEET, N,N-diethyl-m-toluamide]
dTRPA1 [1]; [3]
  Activation of dTRPA1: failed to activate
